In paper PMC10278977, “Caenorhabditis elegans NMAD-1 functions as a demethylase for actin” (Journal of Molecular Cell Biology, 2023):

Assays:
[1] = biological target: T1, NMAD-1_32–291 (NMAD-1 truncation Δ1–31) (Caenorhabditis elegans, UniProt Q8MNT9); experiment: binding affinity measurement, method not given
T1 construct: residues 32-291, N-terminal flexible region removed
T1 sequence (Q8MNT9 32-291): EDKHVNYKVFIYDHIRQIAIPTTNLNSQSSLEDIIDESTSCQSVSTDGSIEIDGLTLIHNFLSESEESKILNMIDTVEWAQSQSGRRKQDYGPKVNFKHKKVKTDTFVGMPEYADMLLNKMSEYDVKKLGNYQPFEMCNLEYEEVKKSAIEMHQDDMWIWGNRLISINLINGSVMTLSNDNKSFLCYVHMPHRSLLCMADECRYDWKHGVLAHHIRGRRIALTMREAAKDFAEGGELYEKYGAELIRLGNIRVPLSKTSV
Source text: binding affinity measurement, method not told in main text on NMAD-1_32–291 (NMAD-1 truncation Δ1–31) | NOG as the full-length NMAD-1 (Supplementary Figure S3C)

[2] = biological target: T2, CTD-deleted NMAD-1 (ΔCTD, residues 1–259) (Caenorhabditis elegans, UniProt Q8MNT9); experiment: binding affinity measurement, method not given
T2 construct: residues 1-259, C-terminal domain deleted
T2 sequence (Q8MNT9 1-259): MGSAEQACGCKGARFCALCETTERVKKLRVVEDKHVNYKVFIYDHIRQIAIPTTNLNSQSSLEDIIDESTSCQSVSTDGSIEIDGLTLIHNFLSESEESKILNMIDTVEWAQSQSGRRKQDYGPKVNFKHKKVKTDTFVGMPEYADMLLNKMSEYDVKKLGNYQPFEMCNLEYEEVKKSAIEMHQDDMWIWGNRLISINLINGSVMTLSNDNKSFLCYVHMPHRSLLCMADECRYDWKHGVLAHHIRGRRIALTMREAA
Source text: binding affinity measurement, method not told in main text on CTD-deleted NMAD-1 (ΔCTD, residues 1–259) | the CTD-deleted NMAD-1 retained the NOG binding affinity

NMAD-1 (WT, full-length) = biological target: T3, NMAD-1 (WT, full-length) (Caenorhabditis elegans, UniProt Q8MNT9); experiment: isothermal titration calorimetry; format: binding
T3 construct: recombinant full-length protein
T3 sequence (Q8MNT9 1-291): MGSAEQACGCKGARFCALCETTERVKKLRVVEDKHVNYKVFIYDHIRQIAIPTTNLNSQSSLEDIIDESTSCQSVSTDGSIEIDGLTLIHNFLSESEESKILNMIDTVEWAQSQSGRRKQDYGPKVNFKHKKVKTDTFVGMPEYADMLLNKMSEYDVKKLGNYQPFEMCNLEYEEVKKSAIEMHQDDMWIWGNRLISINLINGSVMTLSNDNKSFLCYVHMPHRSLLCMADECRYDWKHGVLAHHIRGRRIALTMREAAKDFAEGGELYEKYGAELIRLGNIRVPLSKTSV
Source text: isothermal titration calorimetry on NMAD-1 (WT, full-length) | the cofactor analog N-oxalylglycine (NOG) with dissociation constants (KD) of […]

Question: What does the source list for O=C(O)CNC(=O)C(=O)O [N-oxalylglycine]?
Answer: Kd [1]: 1250 ± 100 nM; Kd [2]: 1680 ± 10 nM; Kd (NMAD-1 (WT, full-length)): 1070 ± 110 nM
